Experimental findings from patent US11708376B2 (VIRGINIA TECH INTELLECTUAL PROPERTIES, INC., priority 2018, dated 2023) are described below.

The subject of this assay is whole cells (NMuLi, C2Cl2, and L6 cells, isolated cardiomyocytes, human primary fibroblasts). Put plainly: Oxygen consumption rate (OCR) in whole cells, Seahorse XF-24 Flux Analyzer. It is filed as cell-based. The following applies: cell type for Table 1 not stated, read-out: OCR Activity (increase in OCR), binned EC50. On the procedure:
Biological activities of the compounds synthesized is determined by determining increase in oxygen consumption rate (OCR).
Oxygen consumption rate (OCR) in whole cells is measured in general accordance with the method of Kenwood B M et al. (Mol. Met. (2014) 3: 114-123).
OCR is measured using a Seahorse XF-24 Flux Analyzer (Seahorse Biosciences, North Billerica, Mass.). NMuLi, C2Cl2, and L6 cells are seeded in a Seahorse 24-well tissue culture plate at a density of 3.5×10^4 cells/well, isolated cardiomyocytes at a density of 4×10^4 cells/well, and human primary fibroblasts at a density of 1.1×10^4 cells/well. The cells are then allowed to adhere for 24 h. Prior to the assay, the media is changed to unbuffered DMEM containing pyruvate and glutamine (Gibco #12800-017, pH=7.4 at 37° C.) and the cells are equilibrated for 30 mins at 37° C. Compounds are injected during the assay and OCR is measured using 2 min measurement periods.
2-3 wells are used per condition and averaged over three plates (n=6-9). Statistical significance is determined by two-way ANOVA with Bonfenoni's posttest.
Activities are reported as binned EC50 values: A=5 μM or less; B=>5 to 20 μM; C=over 20 μM; NA=no effect.
Usually EC50 stands for the concentration at which the effect is half-maximal. On to `CCOc1nc2[nH]c(C(F)(F)F)nc2nc1Nc1ccc(OC(F)(F)F)cc1F` [Compound 2-38, 6-ethoxy-N-(2-fluoro-4-(trifluoromethoxy)phenyl)-2-(trifluoromethyl)-1H-imidazo[4,5-b]pyrazin-5-amine], for which the EC50 was in the range of 5 to 20 µM. The value for `Fc1ccccc1Oc1nc2nc(C(F)(F)F)[nH]c2nc1Nc1ccc(C(F)(F)F)cc1` [Compound 2-46, 5-(2-fluorophenoxy)-2-(trifluoromethyl)-N-(4-(trifluoromethyl)phenyl)-1H-imidazo[4,5-b]pyrazin-6-amine] was 5 to 20 µM; that for `Oc1nc2nc(-c3cccc(F)c3)oc2nc1Nc1ccccc1F` [Compound 4-3, 2-(3-fluorophenyl)-6-((2-fluorophenyl)amino)oxazolo[4,5-b]pyrazin-5-ol] was 5 to 20 µM; that for `COc1nc2[nH]c(C(F)(F)F)nc2nc1Nc1cccc(F)c1F` [Compound 2-16, 6-methoxy-N-(2,3-difluorophenyl)-2-(trifluoromethyl)-1H-imidazo[4,5-b]pyrazin-5-amine] was 5 to 20 µM.

Turning to `COc1nc2[nH]c(C(F)(F)F)nc2nc1Nc1cc(C(F)(F)F)cc(C(F)(F)F)c1` [Compound 2-8, 6-methoxy-(3,5-bis(trifluoromethyl)phenyl)-2-(trifluoromethyl)-1H-imidazo[4,5-b]pyrazin-5-amine], the EC50 fell in the range of 5 to 20 µM. The value for `COc1ccc(Nc2cc3nc(C(F)(F)F)[nH]c3nc2OC)cc1` [Compound 2-69, 5-methoxy-N-(4-methoxyphenyl)-2-(trifluoromethyl)-3H-imidazo[4,5-b]pyridin-6-amine] was not above 5 µM. With `COc1nc2[nH]c(C(F)(F)F)nc2cc1Nc1cccc(C(C)(C)C)c1` [Compound 2-70, N-(3-(tert-butyl)phenyl)-5-methoxy-2-(trifluoromethyl)-3H-imidazo[4,5-b]pyridin-6-amine], the EC50 was more than 20 µM. In the case of `COc1nc2[nH]c(C(F)(F)F)nc2nc1Nc1ccc(C(F)(F)F)c(F)c1` [Compound 2-23, 6-methoxy-N-(3-fluoro-4-(trifluoromethyl)phenyl)-2-(trifluoromethyl)-1H-imidazo[4,5-b]pyrazin-5-amine], the EC50 was more than 20 µM. For `COc1nc2[nH]c(C(F)(F)F)nc2nc1Nc1cccc(C(F)(F)F)c1F` [Compound 2-6, 6-methoxy-N-(2-fluoro-3-(trifluoromethyl)phenyl)-2-(trifluoromethyl)-1H-imidazo[4,5-b]pyrazin-5-amine], the EC50 is not above 5 µM. The value for `COc1nc2nc(C(F)(F)F)[nH]c2cc1Nc1ccc(C(F)(F)F)cc1` [Compound 2-64, 5-methoxy-2-(trifluoromethyl)-N-(4-(trifluoromethyl)phenyl)-1H-imidazo[4,5-b]pyridin-6-amine] was 5 to 20 µM; that for `COc1nc2[nH]c(C(F)(F)C(F)(F)F)nc2nc1Nc1cccc(C(F)(F)F)c1F` [Compound 2-34] was 5 to 20 µM; that for `COc1nc2[nH]c(C(F)(F)F)nc2cc1Nc1ccc(C)cc1` [Compound 2-73, 5-methoxy-N-(p-tolyl)-2-(trifluoromethyl)-3H-imidazo[4,5-b]pyridin-6-amine] was more than 20 µM. Consider `COc1nc2[nH]c(C(F)(F)F)nc2nc1Nc1ccc(OC(F)(F)F)cc1Cl` [Compound 2-42, N-(2-chloro-4-(trifluoromethoxy)phenyl)-6-methoxy-2-(trifluoromethyl)-1H-imidazo[4,5-b]pyrazin-5-amine], for which the half-maximal effective concentration (EC50) lay within 5 to 20 µM.

Turning to `COc1nc2[nH]c(-c3ccccc3)nc2nc1Nc1ccc(OC(F)(F)F)cc1` [Compound 2-60, 6-methoxy-2-phenyl-N-(4-(trifluoromethoxy)phenyl)-1H-imidazo[4,5-b]pyrazin-5-amine], the EC50 was more than 20 µM. For `COc1nc2[nH]c(C(F)(F)F)nc2nc1Nc1ccc(C(C)(C)C)cc1` [Compound 2-19, 6-methoxy-N-(4-(tert-butyl)phenyl)-2-(trifluoromethyl)-1H-imidazo[4,5-b]pyrazin-5-amine] the value was 5 to 20 µM; for `COc1nc2[nH]c(C(F)(F)F)nc2nc1Nc1ccc(OC(F)(F)F)cc1I` [Compound 2-41, N-(2-iodo-4-(trifluoromethoxy)phenyl)-6-methoxy-2-(trifluoromethyl)-1H-imidazo[4,5-b]pyrazin-5-amine], 5 to 20 µM.

`COc1nc2[nH]c(C(F)(F)F)nc2nc1Nc1ccc(OC(F)(F)F)c(Cl)c1` [Compound 2-43, N-(3-chloro-4-(trifluoromethoxy)phenyl)-6-methoxy-2-(trifluoromethyl)-1H-imidazo[4,5-b]pyrazin-5-amine]: the EC50 is more than 20 µM. For `CCCCOc1nc2[nH]c(C(F)(F)F)nc2nc1Nc1ccc(OC(F)(F)F)cc1` [Compound 2-35, 6-butoxy-N-(4-(trifluoromethoxy)phenyl)-2-(trifluoromethyl)-1H-imidazo[4,5-b]pyrazin-5-amine] the value was more than 20 µM; for `COc1nc2nc(C(F)(F)F)[nH]c2nc1N(C)c1ccc(C(F)(F)F)cc1` [Compound 2-49, 5-methoxy-N-methyl-2-(trifluoromethyl)-N-(4-(trifluoromethyl)phenyl)-1H-imidazo[4,5-b]pyrazin-6-amine], not above 5 µM.

On to `COc1nc2[nH]c(C(F)(F)F)nc2nc1Nc1ccc2ccccc2c1` [Compound 2-20, 6-methoxy-N-(naphthalen-2-yl)-2-(trifluoromethyl)-1H-imidazo[4,5-b]pyrazin-5-amine], for which the concentration giving a half-maximal response (EC50) lay in the range of 5 to 20 µM.

For `COc1nc2[nH]c(C(F)(F)F)nc2nc1Nc1ccccc1F` [Compound 2-9, 6-methoxy-(2-fluorophenyl)-2-(trifluoromethyl)-1H-imidazo[4,5-b]pyrazin-5-amine], the EC50 was 5 to 20 µM.

For `COc1nc2nc(C(F)(F)F)[nH]c2cc1Nc1ccc(OC(F)(F)F)cc1` [Compound 2-62, 5-methoxy-N-(4-(trifluoromethoxy)phenyl)-2-(trifluoromethyl)-1H-imidazo[4,5-b]pyridin-6-amine], the EC50 was in the range of 5 to 20 µM. Consider `COc1nc2[nH]c(C(F)(F)F)nc2nc1Nc1cc(C(F)(F)F)ccc1C` [Compound 2-5, 6-methoxy-N-(2-methyl-5-(trifluoromethyl)phenyl)-2-(trifluoromethyl)-1H-imidazo[4,5-b]pyrazin-5-amine], for which the 50% effective concentration (EC50) was in the range of 5 to 20 µM. For `COc1nc2[nH]c(C(F)(F)F)nc2nc1Nc1ccc(OC(F)(F)F)c(Br)c1` [Compound 2-44, N-(3-bromo-4-(trifluoromethoxy)phenyl)-6-methoxy-2-(trifluoromethyl)-1H-imidazo[4,5-b]pyrazin-5-amine] the value was more than 20 µM; for `COc1nc2[nH]c(C(F)(F)F)nc2nc1Nc1ccc(-c2ccccc2)cc1` [Compound 2-18, N-([1,1′-biphenyl]-4-yl)-6-methoxy-2-(trifluoromethyl)-1H-imidazo[4,5-b]pyrazin-5-amine], more than 20 µM; for `COc1nc2nc(C(F)(F)F)[nH]c2cc1Nc1cccc(C(F)(F)F)c1` [Compound 2-65, 5-methoxy-2-(trifluoromethyl)-N-(3-(trifluoromethyl)phenyl)-1H-imidazo[4,5-b]pyridin-6-amine], more than 20 µM. For `COc1nc2[nH]c(C(F)(F)F)nc2nc1Nc1cccc(C(F)(F)F)c1` [Compound 2-32, 6-methoxy-N-(3-(trifluoromethyl)phenyl)-2-(trifluoromethyl)-1H-imidazo[4,5-b]pyrazin-5-amine] the value was 5 to 20 µM.
